# Key:
# [1] = system: P. falciparum strain 3D-7; set-up: method as in doi:10.22159/ajpcr.2017.v10i12.19858; settings: cited from earlier work; for IC50: read-out: antiplasmodial IC50 on P. falciparum strain 3D-7
# [2] = system: Plasmodium falciparum 3D-7 (chloroquine-sensitive strain); assay: In vitro antiplasmodial activity assay, microscopic method, strain 3D-7; assay type: cell-based; settings: for IC50: 72 hours incubation, microscopic method, read-out: IC50 on P. falciparum 3D-7; for antiplasmodial activity category on P. falciparum 3D-7: category by IC50
# Procedure: (§1) The test of antiplasmodial activity began with the culture of P. falciparum 3D-7 and FCR-3 using the modified Trager and Jensen method. The plasmodium was cultured in human O red blood cells diluted to 3% haematocrit in RPMI 1640 medium complemented with 10% human O serum. The medium was made by adding 10.43 g of powder RPMI 1640, 6 g HEPES, 2 g NaHCO3, 25 mg gentamycin, and sterile distilled water up to 1 L. The medium pH was adjusted so that it reached ±7.2. It was sterilized using a 0.22 μm filter and stored at 4°C. The complete plasmodium culture medium was made by adding human serum with a concentration of 10% in the medium. The plasmodium culture was incubated in candle jar in an incubator with a temperature of 37°C and was observed every 24 hours.
# (§2) The plasmodium was synchronized to obtain the ring stage by adding 5% of D-sorbitol. The plasmodium was transferred from culture flask to a conical tube, and then it was centrifuged with a speed of 1000 rpm for 10 minutes. After the supernatant was disposed, the sterile 5% sorbitol was added and incubated for 10 minutes at a temperature of 37°C. The plasmodium suspension was centrifuged again; the supernatant was disposed and the plasmodium was washed by adding culture medium. Then, the plasmodium suspension was centrifuged again, and the supernatant was discarded, resulting in a plasmodium in ring stage only. The parasitemia was calculated from a thin blood preparation. The test used 1% parasitemia at 2% haematocrit in RPMI medium which complemented with 10% human O serum.
# (§3) Each testing compound was dissolved in RPMI medium. The testing compound in various concentrations with volume of 100 μL was incorporated into the 96-well microplate, and then 100 μL of Plasmodium suspension was added. Each series of concentrations was replicated three times. The microplate was incubated at a temperature of 37°C for 72 hours. At the end of the incubation, a thin blood smear was made using 10% Giemsa stain and observed under a light microscope at 1000x magnification. The percentage of parasitemia (counting a minimum of 1,000 erythrocytes) was calculated from the preparation of thin blood and then used to calculate the percentage of plasmodium growth inhibition. […] Antiplasmodial activity is expressed as IC50, which is the concentration of a compound that is required for 50% inhibition of plasmodium growth. The IC50 value was calculated by probit analysis using SPSS software (IBM Corp., Chicago). The lower the IC50 value obtained, the greater the antiplasmodial activity.
# [3] = system: WIDR; set-up: method as in earlier work; settings: cited from earlier work
# [4] = system: Vero cells; assay: In vitro cytotoxicity test, MTT assay on Vero cell line; assay type: cell-based; settings: for IC50: MTT assay; for Selectivity index 3D-7: ratio IC50 on Vero cell/IC50 on P. falciparum 3D-7; for Selectivity index FCR-3: ratio IC50 on Vero cell/IC50 on P. falciparum FCR-3
# Procedure: The in vitro cytotoxicity test was conducted using the 3-(4,5-dimethylthiazol-2-yl)2,5-diphenyltetrazolium bromide (MTT) assay method on Vero cell line culture using the Anderson et al.'s modified method.
# The cell was removed from the cryo medium. Then, the cell was thawed at 37°C. The liquid cell was subsequently transferred to the tube and a culture medium was added to a volume of 10 mL. Then, the suspension was centrifuged for 15 minutes so that it would form cell pellets. The supernatant was removed and 1 mL of culture medium was added to the cell pellets. Finally, the suspension was transferred to the Petri dish and incubated in the incubator with 5% of CO2 at 37°C.
# The medium of Vero cell culture was removed, and then the cell was washed using a PBS solution with a volume of PBS ± 1/2 of the initial medium volume. This step was done twice and 1 mL of trypsin 0.25% was added. Subsequently, the cell was incubated in the CO2 incubator at 37°C for 3 minutes. Then, the cell was resuspended using 2 mL of culture medium and PBS solution was added up to 10 mL. The suspension was centrifuged for 15 minutes so that it formed pellets. Pellets were added with 1 mL of culture medium and resuspended. Take 10 μL of the cell suspension and density of cells was calculated.
# Then, the cell was added with culture medium to 10 mL. A total of 100 μL of such suspensions was transferred into each well of the 96-well microplate, but three of the wells were emptied as medium controls. Subsequently, the microplate was incubated in a 5% CO2 incubator at 37°C.
# Each hydroxyxanthone derivative compound was dissolved in DMSO, and a variety of concentrations were prepared in the medium. Each concentration of the testing compound was added into the 96-well microplate triplicately. Cell control and medium control were not given a testing compound solution. The medium control remained blank, while the cell control contained culture medium only. […] Then, the cell was incubated in a 5% CO2 incubator at 37°C for 24 hours.
# After the cell was incubated for 24 hours, the medium was discarded and washed with PBS. Then, each well was added with 100 μL of 5 mg/mL of MTT solution. The 96-well microplate was incubated again in the incubator of CO2 at 37°C for 4 hours. Then, 100 μL of 10% of SDS in 0.01 MHCl was added. The cells were placed in a dark room at room temperature for 24 hours.
# The absorbance was measured using the enzyme-linked immunosorbent assay (ELISA) reader at 595 nm wavelength. The cytotoxicity test on the Vero cells was done by calculating the percentage of Vero cell inhibition of the absorption value of the test compound, cell control, and medium control. The cytotoxic effect was expressed as IC50. The IC50 value was obtained from the probit analysis by using SPSS software (IBM Corp., Chicago). The degree of selectivity was expressed as a selectivity index. The selectivity index was obtained from the ratio between the IC50 cytotoxic effect on Vero cells and IC50 antiplasmodial activity on Plasmodium. A compound is said to be safe if the value of the selectivity index is >10 [20].
# [5] = system: MCF-7; set-up: method as in earlier work; settings: cited from earlier work
# [6] = system: Plasmodium falciparum FCR-3 (chloroquine-resistant strain); assay: In vitro antiplasmodial activity assay, microscopic method, strain FCR-3; assay type: cell-based; settings: for IC50: 72 hours incubation, microscopic method, read-out: IC50 on P. falciparum FCR-3; for antiplasmodial activity category on P. falciparum FCR-3: category by IC50
# Procedure: as §1, §2, §3
# [7] = system: Hela; set-up: method as in earlier work; settings: cited from earlier work
# [8] = system: heme polymerization; set-up: method as in PMID 9199506; settings: cited from earlier work
# [9] = Chlorocebus sabaeus, Vero, 24 h, 24 hours incubation
compound,measurement,setting,value
O=c1c2ccccc2oc2ccc(O)cc12 [2-hydroxyxanthone],antiplasmodial IC50,[1],4.385 mg/L
same,IC50,[1],20.7 µM
"O=c1c2ccc(O)cc2oc2cccc(O)c12 [HX2, 1,6-dihydroxyxanthone]",inhibition at 54.78 µM,"[2]; Plasmodium falciparum, 54.78 μM, read-out: Growth inhibition of P. falciparum Strain 3D-7",49.2 ± 1.61%
same,inhibition at 109.55 µM,"[2]; Plasmodium falciparum, 109.55 μM, read-out: Growth inhibition of P. falciparum Strain 3D-7",54.8 ± 2.43%
same,inhibition at 219.11 µM,"[2]; Plasmodium falciparum, 219.11 μM, read-out: Growth inhibition of P. falciparum Strain 3D-7",67.16 ± 0.601%
same,inhibition at 438.21 µM,"[2]; Plasmodium falciparum, 438.21 μM, read-out: Growth inhibition of P. falciparum Strain 3D-7",73.62 ± 0.713%
same,inhibition at 876.42 µM,"[2]; Plasmodium falciparum, 876.42 μM, read-out: Growth inhibition of P. falciparum Strain 3D-7",90.56 ± 0.665%
same,IC50,[2]; Plasmodium falciparum,71.78 ± 0.31 µM
same,antiplasmodial activity category on P. falciparum 3D-7,[2],moderate (moderate (IC50 20–100 μM))
same,cytotoxicity on WIDR (in words),[3],weak
same,IC50,[4]; 24 hours incubation,308 µM
same,IC50,[4]; [9],390 µM
same,inhibition at 54.13 µM,"[4]; Chlorocebus sabaeus, Vero, 24 h, 54.13 μM, read-out: Vero cell growth inhibition after 24 hours incubation",15.6%
same,inhibition at 108.26 µM,"[4]; Chlorocebus sabaeus, Vero, 24 h, 108.26 μM, read-out: Vero cell growth inhibition after 24 hours incubation",31.8%
same,inhibition at 216.86 µM,"[4]; Chlorocebus sabaeus, Vero, 24 h, 216.86 μM, read-out: Vero cell growth inhibition after 24 hours incubation",38.9%
same,inhibition at 433.73 µM,"[4]; Chlorocebus sabaeus, Vero, 24 h, 433.73 μM, read-out: Vero cell growth inhibition after 24 hours incubation",59.8%
same,inhibition at 867.45 µM,"[4]; Chlorocebus sabaeus, Vero, 24 h, 867.45 μM, read-out: Vero cell growth inhibition after 24 hours incubation",67%
same,inhibition at 1734.91 µM,"[4]; Chlorocebus sabaeus, Vero, 24 h, 1734.91 μM, read-out: Vero cell growth inhibition after 24 hours incubation",86.1%
same,IC50,"[4]; Chlorocebus sabaeus, Vero",88.9 mg/L
same,Selectivity index 3D-7,[4],4.30
same,Selectivity index FCR-3,[4],3.77
same,cytotoxicity on MCF-7 (in words),[5],weak
same,inhibition at 54.78 µM,"[6]; Plasmodium falciparum, FCR3, 54.78 μM, read-out: Growth inhibition of P. falciparum Strain FCR-3",47.2 ± 0.687%
same,inhibition at 109.55 µM,"[6]; Plasmodium falciparum, FCR3, 109.55 μM, read-out: Growth inhibition of P. falciparum Strain FCR-3",50.2 ± 2.63%
same,inhibition at 219.11 µM,"[6]; Plasmodium falciparum, FCR3, 219.11 μM, read-out: Growth inhibition of P. falciparum Strain FCR-3",67.1 ± 2.76%
same,inhibition at 438.21 µM,"[6]; Plasmodium falciparum, FCR3, 438.21 μM, read-out: Growth inhibition of P. falciparum Strain FCR-3",74.2 ± 1.32%
same,inhibition at 876.42 µM,"[6]; Plasmodium falciparum, FCR3, 876.42 μM, read-out: Growth inhibition of P. falciparum Strain FCR-3",87.6 ± 2.24%
same,IC50,"[6]; Plasmodium falciparum, FCR3",81.8 ± 5.78 µM
same,antiplasmodial activity category on P. falciparum FCR-3,[6],moderate (moderate (IC50 20–100 μM))
same,cytotoxicity on Hela (in words),[7],weak
pentametoxyxanthone,heme polymerization inhibitory activity (in words),[8],inactive
pentaacetylxanthone,heme polymerization inhibitory activity (in words),[8],inactive
"O=c1c2cc(O)ccc2oc2ccc(O)cc12 [2,7-dihydroxyxanthone]",IC50,[1],1.34 µM
"O=c1c2cccc(Cl)c2oc2cccc(O)c12 [HX4, 1-hydroxy-5-chloroxanthone]",inhibition at 50.68 µM,"[2]; Plasmodium falciparum, 50.68 μM, read-out: Growth inhibition of P. falciparum Strain 3D-7",46.5 ± 0.8%
same,inhibition at 101.36 µM,"[2]; Plasmodium falciparum, 101.36 μM, read-out: Growth inhibition of P. falciparum Strain 3D-7",50.96 ± 0.361%
same,inhibition at 202.71 µM,"[2]; Plasmodium falciparum, 202.71 μM, read-out: Growth inhibition of P. falciparum Strain 3D-7",57.1 ± 1.57%
same,inhibition at 405.43 µM,"[2]; Plasmodium falciparum, 405.43 μM, read-out: Growth inhibition of P. falciparum Strain 3D-7",64.51 ± 0.418%
same,inhibition at 810.86 µM,"[2]; Plasmodium falciparum, 810.86 μM, read-out: Growth inhibition of P. falciparum Strain 3D-7",74 ± 0.923%
same,IC50,[2]; Plasmodium falciparum,85.3 ± 4.87 µM
same,antiplasmodial activity category on P. falciparum 3D-7,[2],moderate (moderate (IC50 20–100 μM))
same,cytotoxicity on WIDR (in words),[3],weak
same,IC50,[4]; 24 hours incubation,331 µM
same,IC50,[4]; [9],335 µM
same,inhibition at 63.25 µM,"[4]; Chlorocebus sabaeus, Vero, 24 h, 63.25 μM, read-out: Vero cell growth inhibition after 24 hours incubation",19%
same,inhibition at 126.49 µM,"[4]; Chlorocebus sabaeus, Vero, 24 h, 126.49 μM, read-out: Vero cell growth inhibition after 24 hours incubation",32.5%
same,inhibition at 253.39 µM,"[4]; Chlorocebus sabaeus, Vero, 24 h, 253.39 μM, read-out: Vero cell growth inhibition after 24 hours incubation",43.2%
same,inhibition at 506.78 µM,"[4]; Chlorocebus sabaeus, Vero, 24 h, 506.78 μM, read-out: Vero cell growth inhibition after 24 hours incubation",54.4%
same,inhibition at 1013.57 µM,"[4]; Chlorocebus sabaeus, Vero, 24 h, 1013.57 μM, read-out: Vero cell growth inhibition after 24 hours incubation",68.9%
same,inhibition at 2027.14 µM,"[4]; Chlorocebus sabaeus, Vero, 24 h, 2027.14 μM, read-out: Vero cell growth inhibition after 24 hours incubation",90%
same,IC50,"[4]; Chlorocebus sabaeus, Vero",82.6 mg/L
same,Selectivity index 3D-7,[4],3.88
same,Selectivity index FCR-3,[4],3.68
same,cytotoxicity on MCF-7 (in words),[5],weak
same,inhibition at 50.68 µM,"[6]; Plasmodium falciparum, FCR3, 50.68 μM, read-out: Growth inhibition of P. falciparum Strain FCR-3",47.4 ± 0.736%
same,inhibition at 101.36 µM,"[6]; Plasmodium falciparum, FCR3, 101.36 μM, read-out: Growth inhibition of P. falciparum Strain FCR-3",49.8 ± 3.36%
same,inhibition at 202.71 µM,"[6]; Plasmodium falciparum, FCR3, 202.71 μM, read-out: Growth inhibition of P. falciparum Strain FCR-3",56.4 ± 3.79%
same,inhibition at 405.43 µM,"[6]; Plasmodium falciparum, FCR3, 405.43 μM, read-out: Growth inhibition of P. falciparum Strain FCR-3",61.2 ± 3.02%
same,inhibition at 810.86 µM,"[6]; Plasmodium falciparum, FCR3, 810.86 μM, read-out: Growth inhibition of P. falciparum Strain FCR-3",72.9 ± 1.34%
same,IC50,"[6]; Plasmodium falciparum, FCR3",89.9 ± 7.69 µM
same,antiplasmodial activity category on P. falciparum FCR-3,[6],moderate (moderate (IC50 20–100 μM))
same,cytotoxicity on Hela (in words),[7],weak

# From article PMC8026324, “In Vitro Antiplasmodial, Heme Polymerization, and Cytotoxicity of Hydroxyxanthone Derivatives” (Journal of Tropical Medicine, 2021)
